The numbers were not newly measured in patent US6077513A, “Drug for treatment of bilharziasis (Schistosomiasis)” (priority 1997, dated 2000), which cites them from elsewhere.

For series [1], the system named is isolated guinea pig ileum.

Consider `CC1=C[C@@H]2[C@@H](CC1)[C@@](C)(O)CC[C@H]2C(C)C` [T-Cadinol], for which the “smooth muscle relaxing effect” value in series [1] is “concentration - dependent smooth muscle relaxing effect”. The antibacterial effect result in the series with Staphylococcus aureus was “bacterial lysis and subsequent fatal loss of intracellular components”.
